According to patent US6831075B2, “Heterocyclic substituted pyrazolones” (Cephalon, Inc., priority 1999, dated 2004):

Columns and labels:
Assay type in all cases: biochemical
[1] = molecular target: T1, recombinant human baculoviral VEGFR2 cyctoplasmic domain (Homo sapiens, UniProt P35968); assay: VEGFR2 kinase inhibition assay (ELISA-based, time-resolved fluorescence); conditions: 1 uM compound, 30 μM ATP; for inhibition at 1 µM: read-out: VEGFR-2 kinase % inhibition @ 1 uM
T1 construct: recombinant human baculoviral VEGFR2 cyctoplasmic domain; host or cells: baculovirus expression system
Method: Inhibition of Vascular Endothelial Growth Factor Receptor-2 Kinase Activity
Assay were performed as described for trkA kinase below. The 96-well microtiter plate (FluoroNUNC Maxisorp) was coated with 40 μg/ml recombinant human phospholipase C-γ1/glutathione S-transferase fusion protein. Inhibition studies were performed in 100 μl assay mixtures containing 50 mM HEPES, pH 7.4, 30 μM ATP, 10 mM MnCl2, 0.1% BSA, 2% DMSO, and 1 μM of test compound. The reaction was initiated by adding prephosphorylated recombinant human baculoviral VEGFR2 cyctoplasmic domain. The reaction was allowed to proceed for 15 minutes at 37° C. The detection antibody, eurpium-labeled anti-phosphotyrosine antibody (Wallac #CR04-100), was added at 1:5000 dilution in block buffer (3% BSA in TBST).

[2] = molecular target: T2, baculovirus-expressed human trkA cytoplasmic domain (Homo sapiens, UniProt P04629); assay: trkA tyrosine kinase inhibition assay (ELISA-based); conditions: 1 uM compound; 40 μM ATP
T2 construct: baculovirus-expressed human trkA cytoplasmic domain; host or cells: baculovirus expression system
Method: Inhibition of trkA Tyrosine Kinase Activity
Selected heterocyclic substituted pyrazolones were tested for their ability to inhibit the kinase activity of baculovirus-expressed human trkA cytoplasmic domain using an ELISA-based assay as previously described (Angeles et al., Anal. Biochem. 236: 49-55, 1996). Briefly, a 96-well microtiter plate was coated with substrate solution (recombinant human phospholipase C-γl/glutathione S-transferase fusion protein (Rotin et al., EMBO J., 11: 559-567, 1992). Inhibition studies were performed in 100 μl assay mixtures containing 50 mM Hepes, pH 7.4, 40 μM ATP, 10 mM MnCl2, 0.1% BSA, 2% DMSO, and various concentrations of inhibitor. The reaction was initiated by addition of trkA kinase and allowed to proceed for 15 minutes at 37° C. An antibody to phosphotyrosine (UBI) was then added, followed by a secondary enzyme-conjugated antibody, alkaline phosphatase-labelled goat anti-mouse IgG (Bio-Rad). The activity of the bound enzyme was measured via an amplified detection system (Gibco-BRL). Inhibition data were analyzed using the sigmoidal dose-response (variable slope) equation in GraphPad Prism.

baculoviral GST-MLK1KD = molecular target: T3, baculoviral GST-MLK1KD (Homo sapiens, UniProt P80192); assay: Mixed Lineage Kinase-1 inhibition assay (Millipore Multiscreen TCA in-plate, 32P); conditions: for inhibition at 1 µM: read-out: MLK-1 Kinase % inhibition @ 1 uM; for MLK-1 Kinase % inhibition @ 1 uM: 1 uM compound, 60 μM ATP
T3 construct: 1 μg/ml of baculoviral GST-MLK1KD; GST (N); host or cells: baculovirus expression system
Method: Inhibition of Mixed Lineage Kinase-1 Activity
The kinase activity of MLK1 was assessed using the Millipore Multiscreen TCA “in-plate” format as described for protein kinase C (Pitt & Lee, J. Biomol. Screening, 1: 47-51, 1996). Briefly, each 50-μl assay mixture contained 20 mM Hepes, pH 7.0, 1 mM EGTA, 10 mM MgCl2, 1 mM DTT, 25 mM β-glycerophosphate, 60 μM ATP, 0.25 μCi [γ-^32P]ATP, 0.1% BSA, 500 μg/ml myelin basic protein (UBI #13-104), 2% DMSO, 1 μM of test compound, and 1 μg/ml of baculoviral GST-MLK1KD. Samples were incubated for 15 min at 37° C. The reaction was stopped by adding ice cold 50% TCA and the protein were allowed to precipitate for 30 min at 4° C. The plates were then washed with ice cold 25% TCA. Supermix scintillation cocktail was added, and the plates were allowed to equilibrate for 1-2 hours prior to counting using the Wallac MicroBeta 1450 PLUS scintillation counter.

T3 sequence (P80192 144-412 limits assumed): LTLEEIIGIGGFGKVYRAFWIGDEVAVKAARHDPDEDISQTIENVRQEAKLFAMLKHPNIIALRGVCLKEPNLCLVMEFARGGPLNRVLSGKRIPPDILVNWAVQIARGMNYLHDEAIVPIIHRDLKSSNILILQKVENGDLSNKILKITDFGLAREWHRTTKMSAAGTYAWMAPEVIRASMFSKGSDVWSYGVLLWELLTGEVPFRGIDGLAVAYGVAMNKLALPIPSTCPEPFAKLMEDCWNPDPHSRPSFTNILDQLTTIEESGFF
T1 sequence (P35968 786-1356 limits assumed): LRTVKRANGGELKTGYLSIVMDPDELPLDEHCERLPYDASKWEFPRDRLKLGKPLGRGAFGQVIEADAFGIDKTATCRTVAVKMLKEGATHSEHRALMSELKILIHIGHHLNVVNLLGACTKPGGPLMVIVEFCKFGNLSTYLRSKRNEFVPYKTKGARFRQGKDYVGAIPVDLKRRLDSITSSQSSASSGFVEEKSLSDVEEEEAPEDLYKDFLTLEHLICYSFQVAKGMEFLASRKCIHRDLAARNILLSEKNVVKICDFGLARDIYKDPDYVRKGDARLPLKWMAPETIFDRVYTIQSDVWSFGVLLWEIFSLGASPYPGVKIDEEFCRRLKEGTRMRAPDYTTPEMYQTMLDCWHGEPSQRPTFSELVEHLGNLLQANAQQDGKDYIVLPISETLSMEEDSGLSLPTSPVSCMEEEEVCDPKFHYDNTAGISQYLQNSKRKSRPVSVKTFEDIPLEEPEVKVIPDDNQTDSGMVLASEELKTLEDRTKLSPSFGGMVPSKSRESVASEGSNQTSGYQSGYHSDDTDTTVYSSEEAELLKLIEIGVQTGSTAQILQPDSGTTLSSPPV
T2 sequence (P04629 440-796 limits assumed): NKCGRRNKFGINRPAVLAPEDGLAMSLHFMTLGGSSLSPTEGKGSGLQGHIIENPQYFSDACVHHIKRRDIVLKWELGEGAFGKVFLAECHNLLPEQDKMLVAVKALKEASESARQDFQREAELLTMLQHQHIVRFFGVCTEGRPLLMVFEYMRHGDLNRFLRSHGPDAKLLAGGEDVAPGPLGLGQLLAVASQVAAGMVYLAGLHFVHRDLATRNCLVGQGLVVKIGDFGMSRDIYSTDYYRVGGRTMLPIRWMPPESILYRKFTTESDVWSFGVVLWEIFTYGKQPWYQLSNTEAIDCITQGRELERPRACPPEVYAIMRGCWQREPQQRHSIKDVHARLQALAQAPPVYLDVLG

Cc1cc(C)c(C=C2C(=O)NN=C2c2ccsc2)[nH]1 [Compound 37, 4-[(3,5-dimethylpyrrol-2-yl)methylene]-3-(3-thienyl)-2-pyrazolin-5-one]
inhibition at 1 µM [1]: 62% | inhibition at 1 µM [2]: 28% | inhibition at 1 µM (baculoviral GST-MLK1KD): 15%

O=C1NN=C(c2cccs2)C1=Cc1c[nH]c2ccccc12 [Compound 38, 4-(indol-3-ylmethylene)-3-(2-thienyl)-2-pyrazolin-5-one]
inhibition at 1 µM [1]: 42% | inhibition at 1 µM [2]: 40% | inhibition at 1 µM (baculoviral GST-MLK1KD): 16%

Cc1cc(C)c(C=C2C(=O)NN=C2c2csc3ccccc23)[nH]1 [Compound 39]
VEGFR-2 kinase % inhibition @ 1 uM [1]: 13% | trkA % inhibition @ 1 uM [2]: 31% | MLK-1 Kinase % inhibition @ 1 uM (baculoviral GST-MLK1KD): 4%

Cc1cc(C)c(C=C2C(=O)NN=C2c2csc(-c3ccccc3)n2)[nH]1 [Compound 40]
VEGFR-2 kinase % inhibition @ 1 uM [1]: 26% | trkA % inhibition @ 1 uM [2]: 27% | MLK-1 Kinase % inhibition @ 1 uM (baculoviral GST-MLK1KD): 33%

Cc1cc(C)c(C=C2C(=O)NN=C2c2cc(-c3ccc(Cl)cc3)oc2C)[nH]1 [Compound 41]
VEGFR-2 kinase % inhibition @ 1 uM [1]: 13% | trkA % inhibition @ 1 uM [2]: 17% | MLK-1 Kinase % inhibition @ 1 uM (baculoviral GST-MLK1KD): 13%

Cc1oc(-c2ccc(Cl)cc2)cc1C1=NNC(=O)C1=Cc1c[nH]c2ccccc12 [Compound 42]
VEGFR-2 kinase % inhibition @ 1 uM [1]: 28% | trkA % inhibition @ 1 uM [2]: 29% | MLK-1 Kinase % inhibition @ 1 uM (baculoviral GST-MLK1KD): −9%

O=C1NN=C(c2ccco2)C1=Cc1c[nH]c2ccc(OCc3ccccc3)cc12 [Compound 43]
VEGFR-2 kinase % inhibition @ 1 uM [1]: 25% | trkA % inhibition @ 1 uM [2]: 42% | MLK-1 Kinase % inhibition @ 1 uM (baculoviral GST-MLK1KD): 13%

O=C1NN=C(c2ccco2)C1=Cc1c[nH]c2cccc(OCc3ccccc3)c12 [Compound 44]
VEGFR-2 kinase % inhibition @ 1 uM [1]: 18% | trkA % inhibition @ 1 uM [2]: 23% | MLK-1 Kinase % inhibition @ 1 uM (baculoviral GST-MLK1KD): 25%

Cn1cc(C=C2C(=O)NN=C2c2ccco2)c2ccccc21 [Compound 45]
VEGFR-2 kinase % inhibition @ 1 uM [1]: 72% | trkA % inhibition @ 1 uM [2]: 39% | MLK-1 Kinase % inhibition @ 1 uM (baculoviral GST-MLK1KD): 24%

Cc1ccc2c(C=C3C(=O)NN=C3c3ccco3)c[nH]c2c1 [Compound 46]
VEGFR-2 kinase % inhibition @ 1 uM [1]: 71% | trkA % inhibition @ 1 uM [2]: 29% | MLK-1 Kinase % inhibition @ 1 uM (baculoviral GST-MLK1KD): 13%

Cc1cccc2c(C=C3C(=O)NN=C3c3ccco3)c[nH]c12 [Compound 47]
VEGFR-2 kinase % inhibition @ 1 uM [1]: 64% | trkA % inhibition @ 1 uM [2]: 37% | MLK-1 Kinase % inhibition @ 1 uM (baculoviral GST-MLK1KD): 33%

O=C1NN=C(c2ccco2)C1=Cc1c[nH]c2ccc(F)cc12 [Compound 48]
VEGFR-2 kinase % inhibition @ 1 uM [1]: 58% | trkA % inhibition @ 1 uM [2]: 47% | MLK-1 Kinase % inhibition @ 1 uM (baculoviral GST-MLK1KD): 2%

O=C1NN=C(c2ccco2)C1=Cc1c[nH]c2ccc(Cl)cc12 [Compound 49]
VEGFR-2 kinase % inhibition @ 1 uM [1]: 50% | trkA % inhibition @ 1 uM [2]: 56% | MLK-1 Kinase % inhibition @ 1 uM (baculoviral GST-MLK1KD): −10%

COC(=O)c1ccc2c(C=C3C(=O)NN=C3c3ccco3)c[nH]c2c1 [Compound 50]
VEGFR-2 kinase % inhibition @ 1 uM [1]: 44% | trkA % inhibition @ 1 uM [2]: 28% | MLK-1 Kinase % inhibition @ 1 uM (baculoviral GST-MLK1KD): 11%

COc1ccc2[nH]cc(C=C3C(=O)NN=C3c3ccco3)c2c1 [Compound 51]
VEGFR-2 kinase % inhibition @ 1 uM [1]: 55% | trkA % inhibition @ 1 uM [2]: 56% | MLK-1 Kinase % inhibition @ 1 uM (baculoviral GST-MLK1KD): 26%

CN(C)c1ccc(C=C2C(=O)NN=C2c2ccco2)cc1 [Compound 52]
VEGFR-2 kinase % inhibition @ 1 uM [1]: 19% | trkA % inhibition @ 1 uM [2]: 10% | MLK-1 Kinase % inhibition @ 1 uM (baculoviral GST-MLK1KD): 5%

Cc1nc[nH]c1C=C1C(=O)NN=C1c1ccco1 [Compound 53]
VEGFR-2 kinase % inhibition @ 1 uM [1]: 34% | trkA % inhibition @ 1 uM [2]: 20% | MLK-1 Kinase % inhibition @ 1 uM (baculoviral GST-MLK1KD): 7%

O=C1NN=C(c2ccco2)C1=Cc1ncc[nH]1 [Compound 54]
VEGFR-2 kinase % inhibition @ 1 uM [1]: 4% | trkA % inhibition @ 1 uM [2]: 20% | MLK-1 Kinase % inhibition @ 1 uM (baculoviral GST-MLK1KD): −12%

Cc1cc(C)c(C=C2C(=O)NN=C2c2cccn2C)[nH]1 [Compound 55]
VEGFR-2 kinase % inhibition @ 1 uM [1]: 38% | trkA % inhibition @ 1 uM [2]: 47% | MLK-1 Kinase % inhibition @ 1 uM (baculoviral GST-MLK1KD): −5%

Cn1cccc1C1=NNC(=O)C1=Cc1c[nH]c2ccc(F)cc12 [Compound 56]
VEGFR-2 kinase % inhibition @ 1 uM [1]: 8% | trkA % inhibition @ 1 uM [2]: 48% | MLK-1 Kinase % inhibition @ 1 uM (baculoviral GST-MLK1KD): −22%

Cc1cc(C)c(C=C2C(=O)NN=C2c2cc3ccccc3o2)[nH]1 [Compound 57, 3-benzo[d]furan-2-yl-4-[(3,5-dimethylpyrrol-2-yl)methylene]-2-pyrazolin-5-one]
inhibition at 1 µM [1]: 30% | inhibition at 1 µM [2]: 33% | inhibition at 1 µM (baculoviral GST-MLK1KD): 44%

O=C1NN=C(c2cc3ccccc3o2)C1=Cc1c[nH]c2ccccc12 [Compound 58]
VEGFR-2 kinase % inhibition @ 1 uM [1]: 47% | trkA % inhibition @ 1 uM [2]: 30% | MLK-1 Kinase % inhibition @ 1 uM (baculoviral GST-MLK1KD): 44%

Cn1cc(C=C2C(=O)NN=C2c2cc3ccccc3o2)c2ccccc21 [Compound 59]
VEGFR-2 kinase % inhibition @ 1 uM [1]: 14% | trkA % inhibition @ 1 uM [2]: 40% | MLK-1 Kinase % inhibition @ 1 uM (baculoviral GST-MLK1KD): 41%

Cc1cc(C)c(C=C2C(=O)NN=C2c2cccs2)[nH]1 [Compound 61]
VEGFR-2 kinase % inhibition @ 1 uM [1]: 75% | trkA % inhibition @ 1 uM [2]: 35% | MLK-1 Kinase % inhibition @ 1 uM (baculoviral GST-MLK1KD): 8%

O=C1NN=C(c2cccs2)C1=Cc1c[nH]c2ccccc12 [Compound 62]
VEGFR-2 kinase % inhibition @ 1 uM [1]: 52% | trkA % inhibition @ 1 uM [2]: 45% | MLK-1 Kinase % inhibition @ 1 uM (baculoviral GST-MLK1KD): 15%

Cn1cc(C=C2C(=O)NN=C2c2cccs2)c2ccccc21 [Compound 63]
VEGFR-2 kinase % inhibition @ 1 uM [1]: 75% | trkA % inhibition @ 1 uM [2]: 60% | MLK-1 Kinase % inhibition @ 1 uM (baculoviral GST-MLK1KD): 14%

N#CCCn1cc(C=C2C(=O)NN=C2c2nccs2)c2ccccc21 [Compound 64]
VEGFR-2 kinase % inhibition @ 1 uM [1]: 43% | trkA % inhibition @ 1 uM [2]: 10% | MLK-1 Kinase % inhibition @ 1 uM (baculoviral GST-MLK1KD): 10%

N#CCCn1cc(C=C2C(=O)NN=C2c2ccoc2)c2ccccc21 [Compound 65]
VEGFR-2 kinase % inhibition @ 1 uM [1]: 43% | trkA % inhibition @ 1 uM [2]: 22% | MLK-1 Kinase % inhibition @ 1 uM (baculoviral GST-MLK1KD): 10%

N#CCCn1cc(C=C2C(=O)NN=C2c2cccs2)c2ccccc21 [Compound 66]
VEGFR-2 kinase % inhibition @ 1 uM [1]: 32% | trkA % inhibition @ 1 uM [2]: 32% | MLK-1 Kinase % inhibition @ 1 uM (baculoviral GST-MLK1KD): 11%

N#CCCn1cc(C=C2C(=O)NN=C2c2ccco2)c2ccccc21 [Compound 67]
VEGFR-2 kinase % inhibition @ 1 uM [1]: 20% | trkA % inhibition @ 1 uM [2]: 40% | MLK-1 Kinase % inhibition @ 1 uM (baculoviral GST-MLK1KD): 3%

O=C1NN=C(c2ccoc2)C1=Cc1cn(Cc2ccccc2)c2ccccc12 [Compound 68]
VEGFR-2 kinase % inhibition @ 1 uM [1]: 26% | trkA % inhibition @ 1 uM [2]: 42% | MLK-1 Kinase % inhibition @ 1 uM (baculoviral GST-MLK1KD): 17%

O=C1NN=C(c2ccco2)C1=Cc1cn(Cc2ccccc2)c2ccccc12 [Compound 69]
VEGFR-2 kinase % inhibition @ 1 uM [1]: 5% | trkA % inhibition @ 1 uM [2]: 35% | MLK-1 Kinase % inhibition @ 1 uM (baculoviral GST-MLK1KD): 21%

O=C1NN=C(c2nccs2)C1=Cc1cn(Cc2ccccc2)c2ccccc12 [Compound 70]
VEGFR-2 kinase % inhibition @ 1 uM [1]: 51% | trkA % inhibition @ 1 uM [2]: 32% | MLK-1 Kinase % inhibition @ 1 uM (baculoviral GST-MLK1KD): 21%

O=C1NN=C(c2ccco2)C1=Cc1cn(CCOCc2ccccc2)c2ccccc12 [Compound 71]
VEGFR-2 kinase % inhibition @ 1 uM [1]: −1% | trkA % inhibition @ 1 uM [2]: 15% | MLK-1 Kinase % inhibition @ 1 uM (baculoviral GST-MLK1KD): 9%

O=C1NN=C(c2nccs2)C1=Cc1cn(CCOCc2ccccc2)c2ccccc12 [Compound 72]
VEGFR-2 kinase % inhibition @ 1 uM [1]: 3% | trkA % inhibition @ 1 uM [2]: 38% | MLK-1 Kinase % inhibition @ 1 uM (baculoviral GST-MLK1KD): 14%

CC(C)Cn1cc(C=C2C(=O)NN=C2c2nccs2)c2ccccc21 [Compound 73]
VEGFR-2 kinase % inhibition @ 1 uM [1]: 15% | trkA % inhibition @ 1 uM [2]: 8% | MLK-1 Kinase % inhibition @ 1 uM (baculoviral GST-MLK1KD): −1%

O=C1NN=C(c2cccs2)C1=Cc1cn(Cc2ccccc2)c2ccccc12 [Compound 75]
VEGFR-2 kinase % inhibition @ 1 uM [1]: 32% | trkA % inhibition @ 1 uM [2]: 23% | MLK-1 Kinase % inhibition @ 1 uM (baculoviral GST-MLK1KD): 5%
